Test system: collagen antibody-induced arthritis
Assay: Collagen antibody-induced arthritis (CAIA) mouse model, mice transduced with Ad-Rubicon
Format: in vivo
Procedure: Collagen antibody-induced arthritis mouse model was induced as previously described. Mice received a single‐dose intravenous injection of anti-type II collagen antibody cocktail (8 mg/mouse) (Arthrogen‐CIA Arthritogenic Monoclonal Antibody, no. 53010; Chondrex) on day −3 and an intraperitoneal injection of 100 μg of lipopolysaccharide on day 0 and were then monitored for the indicated times. Mice were sacrificed under anesthesia for the indicated times and knee joints were isolated. All animal-related procedures were reviewed and approved by the Institutional Animal Care and Use Committee of the Hanyang University (protocol 2017–0219). All animal experiments were performed in accordance with Korean Food and Drug Administration guidelines. […]
Figure 5 TIPTP protects Rubicon-expressed CAIA mice mortality. […] (a) The survival of CAIA mice was monitored for 15 days and mortality was measured for n = 10 mice per group. […] (b) Clinical arthritis score and swelling of paws, or (c) representative H&E staining of the ankle joints of each group were determined at 9 days of CAIA (left). […] Statistical significance was determined by two-way analysis of variance (ANOVA) with Tukey’s posttest; **P < 0.01 compared with Ad-Vector+Vehicle (a). […]
Arthritis mice were evaluated for disease progression three times a week as follows ^1,2. […]

Compound: C[C@@H](Oc1cccc(-n2cc3c(n2)CCCC3)c1)C(=O)Nc1nnc(C(F)(F)F)s1 [TIPTP, (R)-2-(3-(4,5,6,7-tetrahydro-2H-indazol-2-yl)phenoxy)-N-(5-(trifluoromethyl)-1,3,4-thiadiazol-2-yl)propanamide]
- survival rate (CAIA mice transduced with Ad-Rubicon, TIPTP every 2 days intraperitoneal, monitored 15 days (Fig. 5a)): 90%
- arthritic clinical scores, paw swelling, and histopathological evaluation vs vehicle (Rubicon-expressing and vector CAIA mice (Fig. 5b,c)): markedly decreased

From article PMC7067850, “Identification of highly potent and selective inhibitor, TIPTP, of the p22phox-Rubicon axis as a therapeutic agent for rheumatoid arthritis” (Scientific Reports, 2020)
